Experimental data published in paper PMC8764865, “Activity-based protein profiling reveals dynamic substrate-specific cellulase secretion by saprotrophic basidiomycetes” (Biotechnology for Biofuels and Bioproducts, 2022).

Key:
Format in all cases: biochemical
LsGH10A [1] = biological target: T1, LsGH10A (Trametes sp., UniProt Z9JQD7XB80); test: continuous fluorogenic inhibition kinetics (4-methylumbelliferyl glycoside); conditions: non-covalent; no covalent inhibition discernible after 1 h; 50 mM NaOAc pH 4.0 final; inhibition assay, printed only as affinity
T1 construct: native signal peptide removed (alpha-factor secretion signal), C-terminal 6xHis, codon-optimised, Pichia pastoris X-33; later-eluting Superdex 200 peak

LsGH10A [2] = biological target: T1, LsGH10A; test: continuous fluorogenic inhibition kinetics, 4MU-GG substrate; conditions: covalent, time-dependent; up to 50 uM inhibitor; 0.4 mM substrate stock mixed 1:1; NaOAc pH 4.0
TlGH12A = biological target: T2, TlGH12A (Pilatotrama ljubarskyi, UniProt Z9OT85M9A7); test: as above; conditions: covalent, time-dependent; up to 50 uM inhibitor; 0.4 mM substrate stock mixed 1:1; NaOAc pH 4.0
T2 construct: native signal peptide removed (alpha-factor secretion signal), C-terminal 6xHis, codon-optimised, Pichia pastoris X-33
T2 sequence (Z9OT85M9A7 1-225): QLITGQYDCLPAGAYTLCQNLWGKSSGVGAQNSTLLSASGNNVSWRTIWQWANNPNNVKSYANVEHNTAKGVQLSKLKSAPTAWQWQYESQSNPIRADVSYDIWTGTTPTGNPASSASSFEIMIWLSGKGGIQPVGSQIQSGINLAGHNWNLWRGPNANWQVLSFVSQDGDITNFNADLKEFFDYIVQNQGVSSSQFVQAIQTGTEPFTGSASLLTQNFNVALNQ

LsGH5_5A = biological target: T3, LsGH5_5A (Trametes sp., UniProt Z9YXY2URI3); test: as above; conditions: covalent, time-dependent; up to 50 uM inhibitor; 0.4 mM substrate stock mixed 1:1; NaOAc pH 4.0
T3 construct: native signal peptide removed (alpha-factor secretion signal), C-terminal 6xHis (intact), codon-optimised, Pichia pastoris X-33
T3 sequence (Z9YXY2URI3 1-398): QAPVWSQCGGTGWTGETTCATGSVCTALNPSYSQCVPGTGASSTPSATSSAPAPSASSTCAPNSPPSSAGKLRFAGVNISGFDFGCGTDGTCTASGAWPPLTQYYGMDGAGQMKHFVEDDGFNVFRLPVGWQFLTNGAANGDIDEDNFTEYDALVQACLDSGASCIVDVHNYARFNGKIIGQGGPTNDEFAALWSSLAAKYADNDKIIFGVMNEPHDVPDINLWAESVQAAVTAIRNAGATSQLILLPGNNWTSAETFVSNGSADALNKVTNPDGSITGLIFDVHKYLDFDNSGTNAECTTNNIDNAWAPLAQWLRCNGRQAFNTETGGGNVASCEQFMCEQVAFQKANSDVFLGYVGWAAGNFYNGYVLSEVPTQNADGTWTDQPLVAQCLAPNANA

Structure (SMILES) | Ki (LsGH10A [1]) [nM] | ki/KI (LsGH10A [2]) | ki/KI (TlGH12A) | ki/KI (LsGH5_5A)
O=C(CCCC[C@@H]1SC[C@@H]2NC(=O)N[C@@H]21)NCCCCCCCCN1[C@H]2[C@H](O)[C@@H](O)[C@H](O[C@@H]3OC[C@@H](O)[C@H](O)[C@H]3O)C[C@H]21 (stereo partly shown) [Biotin-ABP-Xyn] | 21 | – | – | –
OC[C@H]1[C@H]2O[C@H]2[C@H](O)[C@@H](O)[C@@H]1O[C@@H]1O[C@H](CO)[C@@H](O)[C@H](O)[C@H]1O [GGcyc] | – | clear time-dependent inhibition of LsGH5_5A, TlGH12A, and LsGH10A by GGcyc | clear time-dependent inhibition of LsGH5_5A, TlGH12A, and LsGH10A by GGcyc | clear time-dependent inhibition of LsGH5_5A, TlGH12A, and LsGH10A by GGcyc
